# Assay results: ChEMBL document CHEMBL5291721, “A preclinical secondary pharmacology resource illuminates target-adverse drug reaction associations of marketed drugs” (Nat Commun, 2023)
# Assays:
# [1] = molecular target: T1, Alpha-1A adrenergic receptor (Homo sapiens, UniProt P35348)
# T1 sequence (P35348 whole entry): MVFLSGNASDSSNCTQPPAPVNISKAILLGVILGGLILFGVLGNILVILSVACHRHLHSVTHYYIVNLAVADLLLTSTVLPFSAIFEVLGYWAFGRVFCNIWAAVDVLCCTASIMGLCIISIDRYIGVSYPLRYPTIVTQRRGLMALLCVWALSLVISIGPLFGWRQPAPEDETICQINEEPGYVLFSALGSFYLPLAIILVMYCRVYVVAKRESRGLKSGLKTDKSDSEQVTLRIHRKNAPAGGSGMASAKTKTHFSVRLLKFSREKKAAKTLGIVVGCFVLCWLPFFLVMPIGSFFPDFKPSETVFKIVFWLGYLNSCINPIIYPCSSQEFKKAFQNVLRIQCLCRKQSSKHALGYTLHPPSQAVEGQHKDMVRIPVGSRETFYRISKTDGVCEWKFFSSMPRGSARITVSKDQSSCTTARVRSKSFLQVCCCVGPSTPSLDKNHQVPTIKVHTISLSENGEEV
# D(1A) dopamine receptor = D(1A) dopamine receptor (Homo sapiens, UniProt P21728)
# [2] = molecular target: T2, 5-hydroxytryptamine receptor 1A (Homo sapiens, UniProt P08908)
# T2 sequence (P08908 whole entry): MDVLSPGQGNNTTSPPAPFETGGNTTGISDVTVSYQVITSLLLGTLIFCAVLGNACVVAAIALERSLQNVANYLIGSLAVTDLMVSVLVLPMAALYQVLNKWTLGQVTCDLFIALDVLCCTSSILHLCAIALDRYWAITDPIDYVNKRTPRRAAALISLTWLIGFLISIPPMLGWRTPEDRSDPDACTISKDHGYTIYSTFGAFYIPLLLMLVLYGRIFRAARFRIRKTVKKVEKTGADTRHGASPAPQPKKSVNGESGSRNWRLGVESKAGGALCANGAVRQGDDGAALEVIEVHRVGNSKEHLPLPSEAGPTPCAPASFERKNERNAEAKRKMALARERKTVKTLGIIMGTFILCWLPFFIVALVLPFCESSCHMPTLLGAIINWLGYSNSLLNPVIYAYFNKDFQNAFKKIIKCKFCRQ
# [3] = molecular target: T3, Oxysterols receptor LXR-alpha (Homo sapiens, UniProt Q13133); assay type: functional
# T3 sequence (Q13133 whole entry): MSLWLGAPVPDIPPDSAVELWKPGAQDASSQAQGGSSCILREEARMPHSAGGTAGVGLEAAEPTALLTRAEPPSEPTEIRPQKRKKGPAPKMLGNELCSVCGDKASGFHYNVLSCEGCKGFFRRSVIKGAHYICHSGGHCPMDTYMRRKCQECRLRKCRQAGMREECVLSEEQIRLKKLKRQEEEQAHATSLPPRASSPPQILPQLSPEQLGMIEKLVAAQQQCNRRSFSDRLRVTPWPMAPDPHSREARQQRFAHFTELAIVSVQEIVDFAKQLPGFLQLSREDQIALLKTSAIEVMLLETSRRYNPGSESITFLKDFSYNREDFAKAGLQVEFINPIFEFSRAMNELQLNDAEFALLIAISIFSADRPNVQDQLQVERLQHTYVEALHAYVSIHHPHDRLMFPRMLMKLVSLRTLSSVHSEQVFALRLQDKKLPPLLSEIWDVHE
# [4] = molecular target: T4, Retinoic acid receptor gamma (Homo sapiens, UniProt P13631); assay type: functional, cell-based
# T4 sequence (P13631 whole entry): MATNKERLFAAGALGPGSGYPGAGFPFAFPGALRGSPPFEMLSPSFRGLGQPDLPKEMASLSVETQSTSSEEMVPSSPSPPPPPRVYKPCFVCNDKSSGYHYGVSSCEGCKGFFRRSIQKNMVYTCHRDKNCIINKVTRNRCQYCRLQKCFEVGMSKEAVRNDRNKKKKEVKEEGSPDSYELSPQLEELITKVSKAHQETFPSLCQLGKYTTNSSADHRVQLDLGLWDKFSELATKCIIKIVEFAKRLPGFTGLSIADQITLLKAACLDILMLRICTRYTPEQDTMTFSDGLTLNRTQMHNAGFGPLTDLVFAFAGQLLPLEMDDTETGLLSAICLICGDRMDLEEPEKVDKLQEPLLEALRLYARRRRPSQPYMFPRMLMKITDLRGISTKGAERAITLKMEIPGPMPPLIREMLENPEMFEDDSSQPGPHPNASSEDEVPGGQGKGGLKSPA
# Bile acid receptor = molecular target: T5, Bile acid receptor (Homo sapiens, UniProt Q96RI1); assay type: functional
# T5 sequence (Q96RI1 whole entry): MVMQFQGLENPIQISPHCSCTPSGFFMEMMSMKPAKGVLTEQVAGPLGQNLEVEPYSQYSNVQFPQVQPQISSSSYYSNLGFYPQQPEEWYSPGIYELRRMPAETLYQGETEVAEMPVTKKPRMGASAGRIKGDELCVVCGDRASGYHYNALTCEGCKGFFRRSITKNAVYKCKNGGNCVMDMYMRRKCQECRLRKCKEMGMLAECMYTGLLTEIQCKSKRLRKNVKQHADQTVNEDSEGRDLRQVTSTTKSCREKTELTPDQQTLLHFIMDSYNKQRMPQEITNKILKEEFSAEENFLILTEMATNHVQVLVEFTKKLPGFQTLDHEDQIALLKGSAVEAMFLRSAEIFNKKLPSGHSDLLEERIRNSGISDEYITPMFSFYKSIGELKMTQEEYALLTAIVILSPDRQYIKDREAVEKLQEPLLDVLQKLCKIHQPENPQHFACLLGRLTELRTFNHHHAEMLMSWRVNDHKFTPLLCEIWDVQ
# [5] = molecular target: T6, Retinoic acid receptor alpha (Homo sapiens, UniProt P10276); assay type: functional, cell-based
# T6 sequence (P10276 whole entry): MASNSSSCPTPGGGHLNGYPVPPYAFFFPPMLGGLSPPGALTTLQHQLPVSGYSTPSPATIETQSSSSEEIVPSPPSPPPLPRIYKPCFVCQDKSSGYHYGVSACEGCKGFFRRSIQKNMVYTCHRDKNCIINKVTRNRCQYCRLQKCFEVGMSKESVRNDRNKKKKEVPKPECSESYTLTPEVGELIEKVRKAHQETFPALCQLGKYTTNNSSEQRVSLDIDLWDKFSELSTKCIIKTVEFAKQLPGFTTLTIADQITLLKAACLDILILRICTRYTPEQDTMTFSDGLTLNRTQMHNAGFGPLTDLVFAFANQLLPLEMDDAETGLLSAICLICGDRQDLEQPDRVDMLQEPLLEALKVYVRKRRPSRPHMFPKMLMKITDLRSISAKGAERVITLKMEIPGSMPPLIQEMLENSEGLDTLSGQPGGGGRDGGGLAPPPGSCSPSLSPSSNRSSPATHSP
# Note: assay procedure not described here.
# Chain of D(1A) dopamine receptor (P21728 whole entry): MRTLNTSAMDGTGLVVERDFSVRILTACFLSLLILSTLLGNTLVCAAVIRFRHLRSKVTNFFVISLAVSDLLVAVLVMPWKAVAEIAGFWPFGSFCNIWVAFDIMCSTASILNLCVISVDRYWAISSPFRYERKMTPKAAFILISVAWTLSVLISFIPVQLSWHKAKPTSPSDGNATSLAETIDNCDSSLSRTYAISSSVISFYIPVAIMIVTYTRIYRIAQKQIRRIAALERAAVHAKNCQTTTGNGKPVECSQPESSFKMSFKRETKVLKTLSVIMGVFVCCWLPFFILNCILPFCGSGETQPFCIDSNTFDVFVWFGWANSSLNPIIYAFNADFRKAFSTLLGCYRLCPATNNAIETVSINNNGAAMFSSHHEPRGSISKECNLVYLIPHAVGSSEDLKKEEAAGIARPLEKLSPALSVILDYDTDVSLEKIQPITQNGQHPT
Structure (SMILES),AC50 [1] [µM],AC50 (D(1A) dopamine receptor) [µM],AC50 [2] [µM],AC50 [3] [µM],AC50 [4] [µM],AC50 (Bile acid receptor) [µM],AC50 [5] [µM]
CC[C@H]1OC(=O)[C@H](C)[C@@H](O[C@H]2C[C@@](C)(OC)[C@@H](O)[C@H](C)O2)[C@H](C)[C@@H](O[C@@H]2O[C@H](C)C[C@H](N(C)C)[C@H]2O)[C@](C)(O)C[C@@H](C)CN(C)[C@H](C)[C@@H](O)[C@]1(C)O [AZITHROMYCIN],> 30,> 30,,,,,
CCc1oc2ccccc2c1C(=O)c1cc(I)c(O)c(I)c1 [BENZIODARONE],> 30,> 30,,,,,
O=C(OCC(O)CO)c1ccccc1Nc1ccnc2cc(Cl)ccc12 (centres undefined) [GLAFENINE],,,> 30,,,,
CN1C(C(=O)Nc2ccccn2)=C(O)c2sc(Cl)cc2S1(=O)=O [LORNOXICAM],,,,> 30,> 30,> 30,> 30
Cc1c(C(=O)NN2CCCCC2)nn(-c2ccc(Cl)cc2Cl)c1-c1ccc(Cl)cc1 [RIMONABANT],,,,> 30,> 30,14,> 30
Cc1cn([C@H]2C=C[C@@H](CO)O2)c(=O)[nH]c1=O [STAVUDINE],,,> 30,,,,
